From paper PMC11390765 (Cancer Chemotherapy and Pharmacology, 2024)

Legend:
[1] = tested on: all three isoforms of AKT; parameters: method as in PMID 22294718; details: cited from earlier work
[2] = Safety and tolerability (adverse events, CTCAE v5.0; full analysis set); type: in vivo, human
Method: Safety and tolerability were evaluated in terms of AEs, which were classified and graded according to the National Cancer Institute (NCI) Common Terminology Criteria for Adverse Events (CTCAE) v5.0; vital signs; 12-lead electrocardiogram (ECG); and clinical laboratory assessments, including clinical chemistry and hematology parameters, urinalysis, HbA1c levels, and lipid profiles.
Efficacy analyses were also performed on the full analysis set. Summary and/or descriptive statistics were used to analyze baseline demographic, safety, and efficacy data; PFS and DoR were estimated using Kaplan–Meier methodology.

[3] = part B period 4, capivasertib only 400 mg BID, N=19
[4] = period 2, days 2–7 cycle 1, capivasertib only 400 mg BID, N=21
[5] = total, all treatment periods, N=21

Structure (SMILES): NC1(C(=O)N[C@@H](CCO)c2ccc(Cl)cc2)CCN(c2nc[nH]c3nccc2-3)CC1 [capivasertib]
- inhibition of AKT isoforms [1]: potent, selective inhibitor
- QT prolongation ([2]; ECG, whole study): no reports of QT prolongation
- patients requiring a capivasertib dose interruption due to AEs ([2]; N = 21): 66.7%
- patients requiring a capivasertib dose reduction due to AEs ([2]; N = 21): 23.8%
- patients with AEs leading to permanent discontinuation of capivasertib ([2]; N = 21): Three
- safety profile ([2]; administered with or without midazolam): manageable safety profile
- Anemia, frequency of patients overall ([2]; all treatment periods, N = 21): 28.6%
- Diarrhea, frequency of patients overall ([2]; all treatment periods, N = 21): 76.2%
- Fatigue, frequency of patients overall ([2]; all treatment periods, N = 21): 33.3%
- Hyperglycemia, frequency of patients overall ([2]; all treatment periods, N = 21): 28.6%
- Nausea, frequency of patients overall ([2]; all treatment periods, N = 21): 33.3%
- patients who experienced grade 3 AEs ([2]; in total, N = 21): 57.1%
- patients who experienced grade ≥ 3 AEs ([2]; in total, N = 21): 66.7%
- serious AEs (SAEs) reported in the study ([2]; n = 1 period 2, n = 1 period 3, n = 3 part B, only one considered related to study treatment): five
- deaths during the study ([2]; one in part A, three in part B, none deemed possibly related to study treatment): four
- Abdominal pain, any grade [2, 3]: 1 (5.3) n (%)
- Abdominal pain, grade ≥ 3 [2, 3]: 1 (5.3) n (%)
- Anemia, any grade [2, 3]: 4 (21.1) n (%)
- Anemia, grade ≥ 3 [2, 3]: 0 n (%)
- Any AE, any grade [2, 3]: 17 (89.5) n (%)
- Any AE, grade ≥ 3 [2, 3]: 9 (47.4) n (%)
- Asthenia, any grade [2, 3]: 2 (10.5) n (%)
- Asthenia, grade ≥ 3 [2, 3]: 1 (5.3) n (%)
- Blood alkaline phosphatase increased, any grade [2, 3]: 0 n (%)
- Blood alkaline phosphatase increased, grade ≥ 3 [2, 3]: 0 n (%)
- Blood bilirubin increased, any grade [2, 3]: 2 (10.5) n (%)
- Blood bilirubin increased, grade ≥ 3 [2, 3]: 1 (5.3) n (%)
- Blood creatinine increased, any grade [2, 3]: 3 (15.8) n (%)
- Blood creatinine increased, grade ≥ 3 [2, 3]: 0 n (%)
- COVID-19, any grade [2, 3]: 1 (5.3) n (%)
- COVID-19, grade ≥ 3 [2, 3]: 1 (5.3) n (%)
- Decreased appetite, any grade [2, 3]: 4 (21.1) n (%)
- Decreased appetite, grade ≥ 3 [2, 3]: 2 (10.5) n (%)
- Diarrhea, any grade [2, 3]: 7 (36.8) n (%)
- Diarrhea, grade ≥ 3 [2, 3]: 1 (5.3) n (%)
- Fatigue, any grade [2, 3]: 4 (21.1) n (%)
- Fatigue, grade ≥ 3 [2, 3]: 2 (10.5) n (%)
- Gamma-glutamyl transferase increased, any grade [2, 3]: 1 (5.3) n (%)
- Gamma-glutamyl transferase increased, grade ≥ 3 [2, 3]: 1 (5.3) n (%)
- Hyperglycemia, any grade [2, 3]: 3 (15.8) n (%)
- Hyperglycemia, grade ≥ 3 [2, 3]: 0 n (%)
- Hypoalbuminemia, any grade [2, 3]: 0 n (%)
- Hypoalbuminemia, grade ≥ 3 [2, 3]: 0 n (%)
- Hypokalemia, any grade [2, 3]: 3 (15.8) n (%)
- Hypokalemia, grade ≥ 3 [2, 3]: 1 (5.3) n (%)
- Hyponatremia, any grade [2, 3]: 3 (15.8) n (%)
- Hyponatremia, grade ≥ 3 [2, 3]: 1 (5.3) n (%)
- Hypotension, any grade [2, 3]: 3 (15.8) n (%)
- Hypotension, grade ≥ 3 [2, 3]: 1 (5.3) n (%)
- Large intestinal obstruction, any grade [2, 3]: 1 (5.3) n (%)
- Large intestinal obstruction, grade ≥ 3 [2, 3]: 1 (5.3) n (%)
- Lymphocyte count decreased, any grade [2, 3]: 2 (10.5) n (%)
- Lymphocyte count decreased, grade ≥ 3 [2, 3]: 0 n (%)
- Nausea, any grade [2, 3]: 4 (21.1) n (%)
- Nausea, grade ≥ 3 [2, 3]: 0 n (%)
- Rash (group term), any grade [2, 3]: 2 (10.5) n (%)
- Rash (group term), grade ≥ 3 [2, 3]: 0 n (%)
- Sepsis, any grade [2, 3]: 1 (5.3) n (%)
- Sepsis, grade ≥ 3 [2, 3]: 1 (5.3) n (%)
- Thrombocytopenia, any grade [2, 3]: 0 n (%)
- Thrombocytopenia, grade ≥ 3 [2, 3]: 0 n (%)
- Ureteric obstruction, any grade [2, 3]: 1 (5.3) n (%)
- Ureteric obstruction, grade ≥ 3 [2, 3]: 1 (5.3) n (%)
- Urticaria, any grade [2, 3]: 0 n (%)
- Urticaria, grade ≥ 3 [2, 3]: 0 n (%)
- patients who experienced a grade 5 AE (sepsis) ([2]; part B, not considered related to capivasertib or midazolam): 4.8%
- Abdominal pain, any grade [2, 4]: 1 (4.8) n (%)
- Abdominal pain, grade ≥ 3 [2, 4]: 0 n (%)
- Anemia, any grade [2, 4]: 2 (9.5) n (%)
- Anemia, grade ≥ 3 [2, 4]: 1 (4.8) n (%)
- Any AE, any grade [2, 4]: 10 (47.6) n (%)
- Any AE, grade ≥ 3 [2, 4]: 3 (14.3) n (%)
- Asthenia, any grade [2, 4]: 1 (4.8) n (%)
- Asthenia, grade ≥ 3 [2, 4]: 0 n (%)
- Blood alkaline phosphatase increased, any grade [2, 4]: 0 n (%)
- Blood alkaline phosphatase increased, grade ≥ 3 [2, 4]: 0 n (%)
- Blood bilirubin increased, any grade [2, 4]: 0 n (%)
- Blood bilirubin increased, grade ≥ 3 [2, 4]: 0 n (%)
- Blood creatinine increased, any grade [2, 4]: 0 n (%)
- Blood creatinine increased, grade ≥ 3 [2, 4]: 0 n (%)
- COVID-19, any grade [2, 4]: 0 n (%)
- COVID-19, grade ≥ 3 [2, 4]: 0 n (%)
- Decreased appetite, any grade [2, 4]: 0 n (%)
- Decreased appetite, grade ≥ 3 [2, 4]: 0 n (%)
- Diarrhea, any grade [2, 4]: 6 (28.6) n (%)
- Diarrhea, grade ≥ 3 [2, 4]: 0 n (%)
- Fatigue, any grade [2, 4]: 0 n (%)
- Fatigue, grade ≥ 3 [2, 4]: 0 n (%)
- Gamma-glutamyl transferase increased, any grade [2, 4]: 0 n (%)
- Gamma-glutamyl transferase increased, grade ≥ 3 [2, 4]: 0 n (%)
- Hyperglycemia, any grade [2, 4]: 1 (4.8) n (%)
- Hyperglycemia, grade ≥ 3 [2, 4]: 0 n (%)
- Hypoalbuminemia, any grade [2, 4]: 1 (4.8) n (%)
- Hypoalbuminemia, grade ≥ 3 [2, 4]: 1 (4.8) n (%)
- Hypokalemia, any grade [2, 4]: 1 (4.8) n (%)
- Hypokalemia, grade ≥ 3 [2, 4]: 0 n (%)
- Hyponatremia, any grade [2, 4]: 1 (4.8) n (%)
- Hyponatremia, grade ≥ 3 [2, 4]: 0 n (%)
- Hypotension, any grade [2, 4]: 0 n (%)
- Hypotension, grade ≥ 3 [2, 4]: 0 n (%)
- Large intestinal obstruction, any grade [2, 4]: 0 n (%)
- Large intestinal obstruction, grade ≥ 3 [2, 4]: 0 n (%)
- Lymphocyte count decreased, any grade [2, 4]: 1 (4.8) n (%)
- Lymphocyte count decreased, grade ≥ 3 [2, 4]: 1 (4.8) n (%)
- Nausea, any grade [2, 4]: 2 (9.5) n (%)
- Nausea, grade ≥ 3 [2, 4]: 0 n (%)
- Rash (group term), any grade [2, 4]: 0 n (%)
- Rash (group term), grade ≥ 3 [2, 4]: 0 n (%)
- Sepsis, any grade [2, 4]: 0 n (%)
- Sepsis, grade ≥ 3 [2, 4]: 0 n (%)
- Thrombocytopenia, any grade [2, 4]: 1 (4.8) n (%)
- Thrombocytopenia, grade ≥ 3 [2, 4]: 1 (4.8) n (%)
- Ureteric obstruction, any grade [2, 4]: 0 n (%)
- Ureteric obstruction, grade ≥ 3 [2, 4]: 0 n (%)
- Urticaria, any grade [2, 4]: 0 n (%)
- Urticaria, grade ≥ 3 [2, 4]: 0 n (%)
- Abdominal pain, any grade [2, 5]: 2 (9.5) n (%)
- Abdominal pain, grade ≥ 3 [2, 5]: 1 (4.8) n (%)
- Anemia, any grade [2, 5]: 6 (28.6) n (%)
- Anemia, grade ≥ 3 [2, 5]: 1 (4.8) n (%)
- Any AE, any grade [2, 5]: 21 (100) n (%)
- Any AE, grade ≥ 3 [2, 5]: 14 (66.7) n (%)
- Asthenia, any grade [2, 5]: 3 (14.3) n (%)
- Asthenia, grade ≥ 3 [2, 5]: 1 (4.8) n (%)
- Blood alkaline phosphatase increased, any grade [2, 5]: 1 (4.8) n (%)
- Blood alkaline phosphatase increased, grade ≥ 3 [2, 5]: 1 (4.8) n (%)
- Blood bilirubin increased, any grade [2, 5]: 2 (9.5) n (%)
- Blood bilirubin increased, grade ≥ 3 [2, 5]: 1 (4.8) n (%)
- Blood creatinine increased, any grade [2, 5]: 3 (14.3) n (%)
- Blood creatinine increased, grade ≥ 3 [2, 5]: 0 n (%)
- COVID-19, any grade [2, 5]: 2 (9.5) n (%)
- COVID-19, grade ≥ 3 [2, 5]: 1 (4.8) n (%)
- Decreased appetite, any grade [2, 5]: 5 (23.8) n (%)
- Decreased appetite, grade ≥ 3 [2, 5]: 2 (9.5) n (%)
- Diarrhea, any grade [2, 5]: 16 (76.2) n (%)
- Diarrhea, grade ≥ 3 [2, 5]: 1 (4.8) n (%)
- Fatigue, any grade [2, 5]: 7 (33.3) n (%)
- Fatigue, grade ≥ 3 [2, 5]: 2 (9.5) n (%)
- Gamma-glutamyl transferase increased, any grade [2, 5]: 1 (4.8) n (%)
- Gamma-glutamyl transferase increased, grade ≥ 3 [2, 5]: 1 (4.8) n (%)
- Hyperglycemia, any grade [2, 5]: 6 (28.6) n (%)
- Hyperglycemia, grade ≥ 3 [2, 5]: 1 (4.8) n (%)
- Hypoalbuminemia, any grade [2, 5]: 1 (4.8) n (%)
- Hypoalbuminemia, grade ≥ 3 [2, 5]: 1 (4.8) n (%)
- Hypokalemia, any grade [2, 5]: 5 (23.8) n (%)
- Hypokalemia, grade ≥ 3 [2, 5]: 1 (4.8) n (%)
- Hyponatremia, any grade [2, 5]: 4 (19.0) n (%)
- Hyponatremia, grade ≥ 3 [2, 5]: 1 (4.8) n (%)
- Hypotension, any grade [2, 5]: 4 (19.0) n (%)
- Hypotension, grade ≥ 3 [2, 5]: 1 (4.8) n (%)
- Large intestinal obstruction, any grade [2, 5]: 1 (4.8) n (%)
- Large intestinal obstruction, grade ≥ 3 [2, 5]: 1 (4.8) n (%)
- Lymphocyte count decreased, any grade [2, 5]: 3 (14.3) n (%)
- Lymphocyte count decreased, grade ≥ 3 [2, 5]: 1 (4.8) n (%)
- Nausea, any grade [2, 5]: 7 (33.3) n (%)
- Nausea, grade ≥ 3 [2, 5]: 0 n (%)
- Rash (group term), any grade [2, 5]: 8 (38.1) n (%)
- Rash (group term), grade ≥ 3 [2, 5]: 3 (14.3) n (%)
- Sepsis, any grade [2, 5]: 1 (4.8) n (%)
- Sepsis, grade ≥ 3 [2, 5]: 1 (4.8) n (%)
- Thrombocytopenia, any grade [2, 5]: 1 (4.8) n (%)
- Thrombocytopenia, grade ≥ 3 [2, 5]: 1 (4.8) n (%)
- Ureteric obstruction, any grade [2, 5]: 1 (4.8) n (%)
- Ureteric obstruction, grade ≥ 3 [2, 5]: 1 (4.8) n (%)
- Urticaria, any grade [2, 5]: 1 (4.8) n (%)
- Urticaria, grade ≥ 3 [2, 5]: 1 (4.8) n (%)
- patients who experienced a grade 4 AE (thrombocytopenia) ([2]; treatment period 2, not considered related to capivasertib or midazolam): 4.8%
